This test concerns P388 leukemia ip, CD2F1 mice, survival T/C. Kind of test: NCI In Vivo Anticancer Drug Screen. Data for tumor model P388 Leukemia (intraperitoneal) in CD2F1 (CDF1) mice. The settings on record: endpoint: median survival time, higher = longer survival. Summed up:
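Mice carrying the transplanted tumor received test compound or vehicle. Survival was recorded in each group, and the value is the treated-group measurement divided by that of the vehicle-treated control group.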

[1] abbreviates: dose: 50.0 mg/kg/injection, schedule: Q01DX005 (ip), vehicle: Klucel (hydroxypropylcellulose) (HPC).
Where [2] appears, read: dose: 100.0 mg/kg/injection, schedule: Q01DX005 (ip), vehicle: Klucel (hydroxypropylcellulose) (HPC).
The mark [3] stands for this setting: dose: 200.0 mg/kg/injection, schedule: Q01DX005 (ip), vehicle: Klucel (hydroxypropylcellulose) (HPC).
The mark [4] stands for this setting: dose: 50.0 mg/kg/injection, schedule: Q01DX005 (ip), vehicle: saline with Tween-80.
[5] abbreviates: dose: 200.0 mg/kg/injection, schedule: Q01DX005 (ip), vehicle: saline with Tween-80.
[6] abbreviates: dose: 400.0 mg/kg/injection, schedule: Q01DX009 (ip), vehicle: saline with Tween-80.
Setting [7] is: dose: 100.0 mg/kg/injection, schedule: Q01DX005 (ip), vehicle: saline with Tween-80.

Molecules are shown by their SMILES. Values joined by “and” are separate entries in the source; they are usually repeats but may differ in a detail not shown here. Identical values can stand only once. Inconclusive results and toxic doses are left out.

Turning to `NC(=O)C#CC(N)=O`, the T/C was 100 % of control and 103 % of control (dose: 0.11 mg/kg/injection, schedule: Q01DX009 (ip), vehicle: Klucel (hydroxypropylcellulose) (HPC)); 100 % of control and 119 % of control (dose: 0.22 mg/kg/injection, schedule: Q01DX009 (ip), vehicle: Klucel (hydroxypropylcellulose) (HPC)); 103 % of control and 119 % of control (dose: 0.45 mg/kg/injection, schedule: Q01DX009 (ip), vehicle: Klucel (hydroxypropylcellulose) (HPC)); 100 % of control and 114 % of control (dose: 0.9 mg/kg/injection, schedule: Q01DX009 (ip), vehicle: Klucel (hydroxypropylcellulose) (HPC)).
As to `CC=C1CN(C)C2Cc3c([nH]c4ccccc34)C(=O)CC1C2C(=O)OC` (stereo not drawn), the T/C (dose: 7.5 mg/kg/injection, schedule: Q01DX009 (ip), vehicle: saline + alcohol) is 107 % of control; the T/C (dose: 15.0 mg/kg/injection, schedule: Q01DX009 (ip), vehicle: saline + alcohol) is 116 % of control; the T/C (dose: 30.0 mg/kg/injection, schedule: Q01DX009 (ip), vehicle: saline + alcohol) is 106 % of control.
Consider `CC(=O)Oc1ccc(OC(C)=O)c2c1CC=CC2`, for which the T/C by setting is: under setting [1], 105 % of control; under setting [2], 105 % of control; under setting [3], 100 % of control.
As for `S=C(NNc1nnc(-c2ccccc2)c(-c2ccccc2)n1)Nc1ccc(Br)cc1`, the T/C (dose: 12.5 mg/kg/injection, schedule: Q01DX005 (ip), vehicle: saline with Tween-80) is 97 % of control; the T/C (dose: 25.0 mg/kg/injection, schedule: Q01DX005 (ip), vehicle: saline with Tween-80) was 90 % of control; the T/C under setting [4] is 97 % of control; the T/C under setting [5] is 93 % of control.
For the molecule `CC([NH-])C[NH-].[Cl][Pt+2][Cl]` (stereo not drawn), the T/C (dose: 3.12 mg/kg/injection, schedule: Q01DX001 (ip), vehicle: Klucel (hydroxypropylcellulose) (HPC)) was 157 % of control and the T/C (dose: 12.5 mg/kg/injection, schedule: Q01DX001 (ip), vehicle: Klucel (hydroxypropylcellulose) (HPC)) is 163 % of control.
In the case of `Cc1c(N=Nc2ccc(Br)cc2)c(-c2ccccc2)nn1C(=S)S`, the T/C runs as follows: under setting [1], 105 % of control; under setting [2], 105 % of control; under setting [3], 90 % of control.
`Cc1nnsc1-c1n[nH]c(=S)n1N`: the T/C runs as follows: (dose: 25.0 mg/kg/injection, schedule: Q01DX001 (ip), vehicle: Klucel (hydroxypropylcellulose) (HPC)) 106 % of control; (dose: 50.0 mg/kg/injection, schedule: Q01DX001 (ip), vehicle: Klucel (hydroxypropylcellulose) (HPC)) 107 % of control; (dose: 100.0 mg/kg/injection, schedule: Q01DX001 (ip), vehicle: Klucel (hydroxypropylcellulose) (HPC)) 101 % of control.
As for `COc1ccc(NC(=O)Nc2ccc(NC(C)=O)cc2)c(OC)c1`, the T/C runs as follows: (dose: 15.0 mg/kg/injection, schedule: Q01DX005 (ip), vehicle: saline with Tween-80) 93 % of control; (dose: 30.0 mg/kg/injection, schedule: Q01DX005 (ip), vehicle: saline with Tween-80) 92 % of control; (dose: 60.0 mg/kg/injection, schedule: Q01DX005 (ip), vehicle: saline with Tween-80) 86 % of control; (dose: 240.0 mg/kg/injection, schedule: Q01DX005 (ip), vehicle: saline with Tween-80) 88 % of control.
As to `O=S(=O)(O)O.[NH-]C(c1ccccc1)C([NH-])c1ccccc1.[Pt+2]` (stereo not drawn), the T/C (dose: 1.56 mg/kg/injection, schedule: Q04DX002 (ip), vehicle: saline) is 110 % of control; the T/C (dose: 6.25 mg/kg/injection, schedule: Q04DX002 (ip), vehicle: saline) was 163 % of control; the T/C (dose: 12.5 mg/kg/injection, schedule: Q04DX002 (ip), vehicle: saline) is 157 % of control and 173 % of control; the T/C (dose: 25.0 mg/kg/injection, schedule: Q04DX002 (ip), vehicle: saline) is 153 % of control and 169 % of control and 185 % of control.
On to `C[CH2][Sn]([CH2]C(=O)OC)([CH2]C(=O)OC)[c]1ccccc1`, for which the T/C reads like this: (dose: 25.0 mg/kg/injection, schedule: Q01DX005 (ip), vehicle: saline) 157 % of control; (dose: 50.0 mg/kg/injection, schedule: Q01DX005 (ip), vehicle: saline) 181 % of control; (dose: 100.0 mg/kg/injection, schedule: Q01DX005 (ip), vehicle: saline) 168 % of control.
On to `Cc1cc[n+](C)c2ccccc12`, for which the T/C by setting is: (dose: 9.37 mg/kg/injection, schedule: Q01DX009 (ip), vehicle: saline with Tween-80) 109 % of control; (dose: 18.75 mg/kg/injection, schedule: Q01DX009 (ip), vehicle: saline with Tween-80) 100 % of control; (dose: 37.5 mg/kg/injection, schedule: Q01DX009 (ip), vehicle: saline with Tween-80) 104 % of control.
For `CC(C)C1(c2ccsc2)NC(=O)NC1=O` (stereo not drawn), the T/C is 107 % of control (dose: 50.0 mg/kg/injection, schedule: Q01DX009 (ip), vehicle: Klucel (hydroxypropylcellulose) (HPC)); 99 % of control (dose: 100.0 mg/kg/injection, schedule: Q01DX009 (ip), vehicle: Klucel (hydroxypropylcellulose) (HPC)); 96 % of control (dose: 200.0 mg/kg/injection, schedule: Q01DX009 (ip), vehicle: Klucel (hydroxypropylcellulose) (HPC)).
On to `O=C(O)C(O)(c1ccccc1)C1CCCC1` (stereo not drawn), for which the T/C by setting is: (dose: 100.0 mg/kg/injection, schedule: Q01DX009 (ip), vehicle: saline with Tween-80) 109 % of control; under setting [6], 107 % of control.
Take `C#CCNC1=CC(=O)CCC1`: the T/C reads like this: (dose: 60.0 mg/kg/injection, schedule: Q01DX005 (ip), vehicle: saline) 100 % of control; (dose: 120.0 mg/kg/injection, schedule: Q01DX005 (ip), vehicle: saline) 106 % of control; (dose: 240.0 mg/kg/injection, schedule: Q01DX005 (ip), vehicle: saline) 118 % of control.
As for `Cc1nn(C(=S)S)c(C)c1N=Nc1ccc(Cl)cc1Cl`, the T/C was 100 % of control under setting [4], 96 % of control under setting [7] and 102 % of control under setting [5].
As to `CC(=O)OC1C(O)C(C)OC(OC2C(OC(=O)C3CCC4C(C3)OC3(CC(OC(=O)/C=C/c5ccccc5)C(C)CO3)C43CO3)OC(CO)C(O)C2OC(C)=O)C1O` (stereo not drawn), the T/C (dose: 1.5 mg/kg/injection, schedule: Q01DX009 (ip), vehicle: saline + alcohol) was 106 % of control; the T/C (dose: 3.0 mg/kg/injection, schedule: Q01DX009 (ip), vehicle: saline + alcohol) was 106 % of control and 116 % of control.
On to `COc1cc(/C=C\C=O)cc(OC)c1OC`, for which the T/C is, setting by setting: (dose: 100.0 mg/kg/injection, schedule: Q04DX002 (ip), vehicle: saline with Tween-80) 99 % of control; (dose: 200.0 mg/kg/injection, schedule: Q04DX002 (ip), vehicle: saline with Tween-80) 110 % of control; (dose: 400.0 mg/kg/injection, schedule: Q04DX002 (ip), vehicle: saline with Tween-80) 108 % of control.
In the case of `CCC[CH2][Sn]([CH2]CCC)([NH]c1ncnc2[nH]cnc12)[NH]c1ncnc2[nH]cnc12`, the T/C (dose: 1.56 mg/kg/injection, schedule: Q01DX005 (ip), vehicle: Klucel (hydroxypropylcellulose) (HPC)) was 98 % of control; the T/C (dose: 3.12 mg/kg/injection, schedule: Q01DX005 (ip), vehicle: Klucel (hydroxypropylcellulose) (HPC)) is 110 % of control; the T/C (dose: 6.25 mg/kg/injection, schedule: Q01DX005 (ip), vehicle: Klucel (hydroxypropylcellulose) (HPC)) was 121 % of control.
`CC(N1CCS(=O)(=O)CC1)P(=O)(O)O` (stereo not drawn): the T/C is, setting by setting: under setting [4], 90 % of control; under setting [7], 99 % of control; under setting [5], 100 % of control.
`CC1(C)N=C(N)N=C(N)N1c1cccc(CC(=O)Nc2ccccc2)c1`: the T/C (dose: 12.5 mg/kg/injection, schedule: Q01DX009 (ip), vehicle: saline sonified) was 95 % of control; the T/C (dose: 12.5 mg/kg/injection, schedule: Q04DX003 (ip), vehicle: saline with Tween-80) is 109 % of control; the T/C (dose: 25.0 mg/kg/injection, schedule: Q01DX009 (ip), vehicle: saline sonified) is 95 % of control; the T/C (dose: 25.0 mg/kg/injection, schedule: Q04DX003 (ip), vehicle: saline with Tween-80) was 104 % of control; the T/C (dose: 50.0 mg/kg/injection, schedule: Q01DX009 (ip), vehicle: saline sonified) is 90 % of control; the T/C (dose: 50.0 mg/kg/injection, schedule: Q04DX003 (ip), vehicle: saline with Tween-80) was 109 % of control.
Consider `N#CSc1ccc2nc(NC(NC(=O)c3ccccc3)C(Cl)(Cl)Cl)sc2c1` (stereo not drawn), for which the T/C is, setting by setting: (dose: 6.25 mg/kg/injection, schedule: Q01DX009 (ip), vehicle: Klucel (hydroxypropylcellulose) (HPC)) 102 % of control; (dose: 12.5 mg/kg/injection, schedule: Q01DX009 (ip), vehicle: Klucel (hydroxypropylcellulose) (HPC)) 108 % of control; (dose: 25.0 mg/kg/injection, schedule: Q01DX009 (ip), vehicle: Klucel (hydroxypropylcellulose) (HPC)) 101 % of control.
For `COc1ccc(N2CSC(=S)N(c3ccc(OC)cc3)C2)cc1`, the T/C under setting [6] is 86 % of control.

Source of the values: PubChem BioAssay AID330 (DTP/NCI, 2004).
